Reference: patent publication US6518302B1, “Remedies” (Takara Shuzo Co., Ltd., priority 1999, dated 2003)
Where two headings read alike, the source gives them in different places.

What was measured:
[1] = tested on: heme oxygenase 1 protein in RAW264.7 cells; test: Heme oxygenase 1 induction (Western blot); assay type: cell-based; set-up: key: − represents no band observed; increase in the intensity of the band is represented as follows: +−<+<++; increase in the intensity of the band is represented as follows: +−<+<++; increase in the intensity of the band is represented as follows: +−<+<++; conditions: 12 hours, positive control: 5 μl of 3 mM solution in dimethyl sulfoxide added to 5 ml
Protocol: RAW264.7 cells (ATCC TIB 71) were suspended in Dulbecco's modified Eagle's medium (Bio Whittaker, 12-604F) containing 10% fetal calf serum (Gibco) at a concentration of 3×10^5 cells/ml. 5 ml of the suspension was added to each well of a 6-well microtiter plate and the plate was incubated at 37° C. overnight in the presence of 5% CO2. 50 μl of a solution containing the compound (11) or the compound (14) at a concentration of 10 mM or 5 mM in water, 5 μl of a solution containing the compound (7) at a concentration of 50 mM or 25 mM in dimethyl sulfoxide, or 5 μl of a solution containing the compound (17) at a concentration of 100 mM or 50 mM in dimethyl sulfoxide was added to the well. The plate was incubated for 12 hours. A positive control for heme oxygenase 1 induction in which 5 μl of 3 mM solution of 15-deoxy-Δ12,14 prostaglandin J2 (Cayman Chemical, 18570) in dimethyl sulfoxide was added, and a negative control in which water was added were provided. The cells were recovered by detaching the cells from the plate using a scraper and suspended in 0.1 M tris-HCl buffer (pH 7.5) containing 0.05 mM pepstatin A (Sigma, P5318), 0.2 mM leupeptin (Sigma, L2884), 1 mM phenylmethylsulfonyl fluoride (Nacalai Tesque, 273-27), 10 mM ethylenediaminetetraacetic acid disodium salt and 0.1% Triton X-100. A supernatant obtained by centrifuging the suspension after freezing and thawing was used as a protein fraction. The content of protein in the protein fraction was determined using Micro BCA Protein Assay Reagent (a product of Pierce sold by Takara Shuzo, P7411). A sample from the protein fraction prepared as described above was mixed with an equal volume of 0.125 M tris-hydrochloride buffer (pH 6.8) containing 4% sodium lauryl sulfate (SDS), 2% 2-mercaptoethanol, 0.001% Bromophenol Blue and 20% glycerol. After treatment at 100° C. for 5 minutes, a portion corresponding to 10 μg of protein was loaded on 12.5% SDS-polyacrylamide gel and electrophoresed at a constant current of 20 mA. After electrophoresis, the gel was transferred to a PVDF membrane (Millipore, IPVH000 10) at a constant voltage of 15 V for 25 minutes using a blotting buffer (containing 48 mM tris, 39 mM glycine, 20% methanol and 0.0375% SDS) and Trans-Blot SD Cell Semi-Dry blotting apparatus (Bio-Rad) according to the attached protocol. After transferring, the PVDF membrane was blocked in a solution of Block Ace (Dainippon Pharmaceutical, UK-B25) at 4 C overnight. After blocking, the membrane washed three times in phosphate buffered saline containing 0.1% Tween 20 for 15 minutes with gentle shaking. The membrane was reacted in phosphate buffered saline containing 10% Block Ace, 0.1% Tween 20 and 200 ng/ml of anti-heme oxygenase 1 antibody (N-19; Santa Cruz, sc-7696) at room temperature for 1 hour with gentle shaking, and then washed three times in phosphate buffered saline containing 0.1% Tween 20 for 15 minutes with gentle shaking. The membrane was reacted in phosphate buffered saline containing 10% Block Ace, 0.1% Tween 20 and 0.1% peroxidase-labeled rabbit anti-goat IgG (H+L) antibody (Zymed, 61-1620) at room temperature for 1 hour with gentle shaking, and then washed five times in phosphate buffered saline containing 0.1% Tween 20 for 15 minutes with gentle shaking. The PVDF membrane was stained using Western Blot Chemiluminescence Reagent Plus (a product of NEN Life Science Products sold by Daiichi Pure Chemicals, NEL103) according to the attached protocol and exposed to an X-ray film (Kodak, CAT165 1454). After exposure, the film was developed using FPM800 (Fuji Film).
The intensity of the band depended on the concentration of the sample. In the table, the intensity of the band for heme oxygenase 1 protein is expressed by the mark +. Specifically, − represents no band observed, and increase in the intensity of the band is represented as follows: +−<+<++.

[2] = tested on: HL-60 (ATCC CCL-240) cells; test: Viability of HL-60 cells by Trypan Blue staining; assay type: cell-based; conditions: Homo sapiens, read-out: Viability50, concentration that results in a viability of 50%
Protocol: HL-60 (ATCC CCL-240) cells were cultured at 37° C. in RPMI 1640 medium (Bio Whittaker) containing 10% fetal calf serum (JRH) which had been treated at 56° C. for 30 minutes and suspended in RPMI 1640 medium at a concentration of 2.5×10^5 cells/4.5 ml.
[…] each of aqueous solutions of the compound (2) at a concentration of 10, 50 or 100 mM, the compound (7) at a concentration of 500, 1000 or 1500 μM, the compound (9) at a concentration of 750, 1500 or 3000 μM, the compound (11) at a concentration of 750, 1500 or 3000 μM, or the compound (14) at a concentration of 750, 1500 or 3000 μM was added to 4.5 ml of the suspension. The mixtures were incubated at 37° C. for 24 hours in the presence of 5% CO2.
A portion of the cells cultured for 24 or 48 hours as described in Example 4 was stained with 0.4% Trypan Blue and examined under an optical microscope. The number of viable cells which were not stained and the number of dead cells which were stained blue were counted. The concentration of each of the compounds (2), (7), (9), (11) and (14) that results in a viability of 50% (Viability50 mM) was determined.

[3] = tested on: Human promyelocytic leukemia HL-60 cells; test: Antiproliferation activity against HL-60 cells (MTT method); assay type: cell-based; conditions: 48 hour incubation
Protocol: Human promyelocytic leukemia HL-60 cells (ATCC CCL-240) were cultured at 37° C. in RPMI 1640 medium (Gibco) containing 10% of fetal calf serum (JRH Bioscience) which had been treated at 56° C. for 30 minutes, and suspended in the same medium at a concentration of 5000 cells/90 μl. Each 90 μl portion of the suspension was distributed into each well of a 96-well plate (Falcon). To the suspension in each well was added 10 μl of one the following samples, and incubated at 37° C. in the presence of 5% CO2. The samples were 2-, 4-, 8-, 16-, 32-, 64- or 128-dilutions of filter-sterilized 200 mM aqueous solution of the compound (2) obtained in Example 1, 50 mM aqueous solution of the compound (7), 50 mM aqueous solution of the compound (9), 100 mM aqueous solution of the compound (11), 100 mM aqueous solution of the compound (14), 20 mM aqueous solution of the compound (17), 12.5 mM aqueous solution of the compound (19) or 12.5 mM aqueous solution of the compound (21) with sterile water, as well as water. After 48 hour from the initiation of the incubation, the numbers of viable cells calculated based on the absorbance measured according to the MTT method as described in “Apoptosis Jikken Protocol” (Syuzyun-sha, Seiichi Tanuma, ed., pp. 156 (1994)) were compared each other.

[4] = tested on: HL-60 cells (ATCC CCL-240); test: Proliferation of HL-60 cells with or without hydroxyurea G1 arrest (WST-1); assay type: cell-based, Human; conditions: 48 hours
Protocol: HL-60 cells (ATCC CCL-240) were suspended in RPMI 1640 medium (Bio Whittaker, 12-702F) containing 10% fetal calf serum (Gibco) and 100 μM hydroxyurea at a concentration of 5×10^5 cells/ml. 20 ml of the suspension was added to a 10-cm Petri dish. The dish was incubated at 37° C. overnight in the presence of 5% CO2 to make the cells arrest at G1 phase. The cells were collected by centrifugation and resuspended in RPMI 1640 medium containing 10% fetal calf serum (Gibco) and 100 μM hydroxyurea at a concentration of 5×10^5 cells/ml. 5 ml of the suspension was added to each well of a 6-well microtiter plate. On the other hand, as cells without the treatment with hydroxyurea, HL-60 cells were suspended in RPMI 1640 medium containing 10% fetal calf serum (Gibco) at a concentration of 1×10^5 cells/ml. 5 ml of the suspension was added to each well of a 6-well microtiter plate. 50 μl of a solution containing DGE at a concentration of 30, 22.5, 15 or 7.5 mM in water, 25 μl of a solution containing the compound (7) at a concentration of 60, 45, 30 or 15 mM in dimethyl sulfoxide, or 25 μl of a solution containing the compound (17) at a concentration of 100, 75, 50 or 25 mM in dimethyl sulfoxide was added to the well containing the cells treated with hydroxyurea. 50 μl of a solution containing DGE at a concentration of 8, 6, 4 or 2 mM in water, 25 μl of a solution containing the compound (7) at a concentration of 30, 22.5, 15 or 7.5 mM in dimethyl sulfoxide, or 25 μl of a solution containing the compound (17) at a concentration of 80, 60, 40 or 20 mM in dimethyl sulfoxide was added to the well containing the cells without the treatment with hydroxyurea. The plate was incubated for additional 48 hours. Cells collected by centrifuging the culture were suspended in 5 ml of fresh RPMI 1640 medium containing 10% fetal calf serum (Gibco). 100 μl of the suspension was used for measuring viable cell number using Premix WST-1 Cell Proliferation Assay System (Takara Shuzo, MK400).
For each of the samples, the concentration at which 50% of the proliferation is inhibited (IC50) for the cells treated with hydroxyurea was higher than that for the cells without the treatment with hydroxyurea. Table 3 summarizes IC50 (μM) for each of the samples. […] Since most of cells in a living body are arrested at G1 phase, it is considered that DGE and R-AhGal compounds (precursors of DGE) are agents less toxic to a living body.

With `CCCCC/C=C/C=C1/C(=O)C=C[C@@H]1C/C=C\CCCC(=O)O` [15-deoxy-Δ12,14 prostaglandin J2, reference compound] the “Intensity of band for heme oxygenase 1 protein” value [1] was “+”.

`CC(=O)OCC1OC(OC2C(O)COC2C(O)C(O)O)C(OC(C)=O)C(OC(C)=O)C1OC(C)=O` [Compound (9), 4-O-(β-D-2,3,4,6-tetra-O-acetylgalactopyranosyl)-3,6-anhydro-D-galactose] was tested, and the IC50 ([2]; 24 hours) was 17200 µM, the IC50 ([2]; 48 hours) was 189 µM and the “antiproliferation activity against HL-60 cells” value [3] was “exhibited antiproliferation activities”. It also gave an IC50 ([3]; Homo sapiens, HL-60 cells, read-out: IC50, concentration at which 50% of the proliferation is inhibited) of 113 µM.

Work on `O=C1C=CC(CO)OC1O` [DGE, L-glycero-1,5-epoxy-1αβ,6-dihydroxy-cis-hex-3-en-2-one, reference compound] yielded an IC50 ([4]; HL-60 cells arrested at G1 phase with 100 μM hydroxyurea, read-out: IC50, Cells treated with hydroxyurea) of 101 µM and an IC50 ([4]; HL-60 cells, read-out: IC50, Cells without treatment with hydroxyurea) of 49.5 µM.
